Experimental findings from PubChem BioAssay AID1549 (Sanford-Burnham Center for Chemical Genomics, 2009) are described below.

Active and inactive are the calls of the source. How the calls were made is not given here.

This assay addresses Influenza A virus M2 proton channel (A/TW/4845/1999 H1N1). Kind of assay: NMR binding screen, influenza A virus M2 proton channel, Kd (AID 1549). The conditions noted are these: M2 protein.
On to `CN(C)C(=O)c1ccc(-c2n[nH]c(=O)c3ccccc23)cc1`, for which the Kd (as a rule, a measure of binding affinity in units of concentration) is > 4 mM (inactive). With `O=C(c1ccco1)N1CCCN(C(=O)c2ccco2)CC1`, the Kd was > 4 mM (inactive). For the compound `Cc1cc(C)n(CCCC(=O)O)n1`, the Kd was > 4 mM (inactive). `Cn1c(C(=O)O)ccc1S(N)(=O)=O`: the Kd is > 4 mM (inactive). Turning to `Cn1c([O-])c([N+](C)(C)C)c(=O)n(C)c1=O`, the Kd was > 4 mM (inactive). Take `Clc1ccccc1OCCn1ccnc1`: the Kd is > 4 mM (inactive). For `CC1=C2C(O)C(=O)OC3CC4C(C)(C)C(=O)C=C[C@]4(C)C(CC1)[C@]23C` (stereo partly drawn) the value was > 4 mM (inactive); for `CC(C)c1ccc2c(c1)CCC1[C@](C)(CN)CCC[C@]21C` (stereo partly drawn), > 4 mM (inactive). `O=C(c1cccc(C(F)(F)F)c1)N1CCCC1`: the Kd is > 4 mM (inactive). With `O=C(O)c1ccc2nccnc2c1`, the Kd was > 4 mM (inactive). For `CSc1n[nH]c(NCc2cccs2)n1` the value was > 4 mM (inactive). For `CN=C(c1ccc([N+](=O)[O-])cc1)N(C)C` the value was > 4 mM (inactive).

In the case of `COC(=O)C[C@H]1C(C)(C)C(=O)[C@@H]2CC3=C4CC(=O)O[C@@H](c5ccoc5)[C@]4(C)CCC3C1(C)C2=O` (stereo partly drawn), the Kd is > 4 mM (inactive).

`COC(=O)/C(C)=C\CC12OC(C)(C)C3CC(C=C4C(=O)c5c(OC)c6c(c(CC=C(C)C)c5OC431)OC(C)(CCC=C(C)C)C=C6)C2=O` (stereo not drawn): the Kd is > 4 mM (inactive). As for `COC(=O)[C@@H]1OC(=O)C2OC23[C@@]1(C)CCC1[C@@]2(C)CCC(=O)C(C)(C)C2C[C@@H](OC(C)=O)[C@]13C` (stereo partly drawn), the figure is > 4 mM (inactive); as for `Nc1ccc2sccc2c1`, > 4 mM (inactive).

`CCCn1c(S(=O)(=O)O)nc2ccccc21`: the Kd was > 4 mM (inactive). As to `Cc1cc(O)c(C=O)c(O)c1C(=O)O`, the Kd is > 4 mM (inactive).

As to `O=C(O)C1COc2ccccc2O1` (stereo not drawn), the Kd is > 4 mM (inactive). As to `Nc1ccc(OCc2ccccc2)cc1`, the Kd was > 4 mM (inactive). For `Cc1nc(-c2ccccc2)sc1C(N)=O`, the Kd was > 4 mM (inactive). As for `CC(=O)Nc1ccc(NC2SC(=O)NC2=O)cc1` (stereo not drawn), the figure is > 4 mM (inactive). As for `COC(=O)c1ccc(NC(=O)CC2NCCNC2=O)cc1` (stereo not drawn), the figure is > 4 mM (inactive); as for `O=C(O)C1(O)C[C@@H](O)C(O)[C@H](O)C1` (stereo partly drawn), > 4 mM (inactive); as for `CC1(C)C2CC(=O)[C@]3(C)C(CC[C@@]4(C)[C@H](c5ccoc5)OC(=O)[C@H]5O[C@]543)[C@@]2(C)C=C[C@@H]1O` (stereo partly drawn), > 4 mM (inactive).

For the compound `Cc1nc2ccc(C(=O)N3CCSCC3)cc2s1`, the Kd is > 4 mM (inactive). For the compound `CNC(=S)N1CCN(C(=O)c2ccco2)CC1`, the Kd was > 4 mM (inactive).

As to `C=C1C(=O)O[C@@H]2C3OC3(C)CC/C=C(\C)CC[C@@H]12` (stereo partly drawn), the Kd was > 4 mM (inactive). As for `N#CCSc1nc(-c2ccccc2)cs1`, the figure is > 4 mM (inactive); as for `O=C(NN1C(=O)c2ccccc2C1=O)c1cccs1`, > 4 mM (inactive). As for `O=C1C=C(O)c2ccccc2C1=O`, the figure is > 4 mM (inactive); as for `O=C(Nc1ccccn1)c1cc(-n2cnnc2)ccc1Cl`, > 4 mM (inactive). For `COC1C(O)C(O)C(O)[C@@H](O)C1O` (stereo partly drawn), the Kd is > 4 mM (inactive). As for `COCCn1c(N)nc2c1c(=O)[nH]c(=O)n2C`, the figure is > 4 mM (inactive); as for `OCCNC(=S)Nc1ccccc1`, > 4 mM (inactive). On to `NC(Cn1ccc(=O)c(O)c1)C(=O)O` (stereo not drawn), for which the Kd is > 4 mM (inactive).

In the case of `O=c1ccc(=O)n(CN2CCc3ccccc3C2)[nH]1`, the Kd is > 4 mM (inactive). For `Cc1nc2ccccc2c(=O)n1CCCO` the value was > 4 mM (inactive); for `CC(=O)Oc1ccc2c(c1C(C)C)CCC1C(C)(C)CCC[C@]21C` (stereo partly drawn), > 4 mM (inactive); for `O=C(O)/C=C(\CC(=O)O)C(=O)O`, > 4 mM (inactive). For `CNC(=S)Nc1cccc(C(=O)O)c1` the value was > 4 mM (inactive); for `Cn1c(=O)n(CC(=O)Nc2cccnc2)c2ccccc21`, > 4 mM (inactive); for `c1cncc(-c2nnc(-c3cccnc3)nn2)c1`, > 4 mM (inactive). For `CCOC(=O)c1c(C)cc(O)cc1O` the value was > 4 mM (inactive).

In the case of `N#Cc1c(N)c(C(=O)c2ccccc2)n2c1CCC2`, the Kd was > 4 mM (inactive).

As for `Oc1ccc([C@H]2Oc3cc(O)cc(O)c3C[C@H]2O)cc1`, the Kd was > 4 mM (inactive).

For `COc1ccc(-c2cc(=O)c3cc(OC)ccc3o2)cc1`, the Kd is > 4 mM (inactive). For `O=C(NN1C(=O)C2C3C=CC(C3)C2C1=O)C1CC=CCC1` (stereo not drawn) the value was > 4 mM (inactive). With `COC(=O)c1cc(C)on1`, the Kd was > 4 mM (inactive). For `CC(C)Nc1nc2n(c(=O)n1)CCN2C(C)C` the value was > 4 mM (inactive); for `OCC1CCN(c2ncccn2)CC1`, > 4 mM (inactive); for `CCOC(=O)c1[nH]cnc1C(=O)OC(C)C`, > 4 mM (inactive). As for `COc1ccccc1NC(C)=O`, the figure is > 4 mM (inactive); as for `O=C(NCc1ccco1)c1ccc(=O)[nH]c1`, > 4 mM (inactive); as for `CN1C(=O)c2ccc(N3CCCC3)cc2C1=O`, > 4 mM (inactive). Take `O=C1c2cccc3cc(S(=O)(=O)O)cc(c23)C(=O)N1O`: the Kd was > 4 mM (inactive). As for `Cc1cc(=O)n2[nH]cnc2n1`, the figure is > 4 mM (inactive); as for `CC(=O)Nc1cccc(-c2n[nH]c(=S)n2C)c1`, > 4 mM (inactive); as for `O=C(O)c1cccnc1N1CCOCC1`, > 4 mM (inactive).

Take `CCOC(=O)c1nc2ccccc2c(=O)n1N`: the Kd is > 4 mM (inactive). For the compound `Cn1cnnc1Sc1ncnc(N)c1[N+](=O)[O-]`, the Kd was > 4 mM (inactive). For the compound `O=c1[nH]c(O)c(C=NCc2cccs2)c(=O)[nH]1`, the Kd was > 4 mM (inactive).

For the compound `CNC(=S)N1CCN=C1Nc1nc(C)cc(C)n1`, the Kd was > 4 mM (inactive).

For `COC(=O)c1ccc2nccnc2c1`, the Kd is > 4 mM (inactive). As for `O=C(NC1CSCC1O)c1ccccc1` (stereo not drawn), the figure is > 4 mM (inactive). As to `c1ccc(SCc2nc(-c3ccccn3)no2)cc1`, the Kd was > 4 mM (inactive).

For `CC(=O)Oc1c2c(c3c(c1CC=C(C)C)O[C@]14C(=C[C@@H]5CC1C(C)(C)OC4(C/C=C(\C)C(=O)O)C5=O)C3=O)OC(C)(CCC=C(C)C)C=C2` (stereo partly drawn), the Kd was > 4 mM (inactive). For `NC(=O)C1CC2C=CC1C2` (stereo not drawn), the Kd is > 4 mM (inactive).

With `Cc1nc2ccccc2c2c1C(=O)N(C)C2=O`, the Kd is > 4 mM (inactive). Consider `Cc1cc(O)cc(=O)o1`, for which the Kd was > 4 mM (inactive). As for `CC(C)NS(=O)(=O)c1ccc(N)cc1`, the figure is > 4 mM (inactive); as for `CC(=O)Nc1ccccc1OCC(N)=O`, > 4 mM (inactive); as for `N#CCCn1c(=O)oc2ccccc21`, > 4 mM (inactive). As for `Nc1ccc2c(c1)OCO2`, the figure is > 4 mM (inactive); as for `CCOc1ccc(C)cc1S(=O)(=O)n1ccc(C)n1`, > 4 mM (inactive). As for `COc1cc2ccc(=O)oc2c(OC)c1OC`, the figure is > 4 mM (inactive); as for `CSc1ccccc1NC(=O)c1c(C)noc1C`, > 4 mM (inactive). Consider `O=C(O)C1CC2CC1CCC2O` (stereo not drawn), for which the Kd was > 4 mM (inactive). For `O=c1[nH]cc(S(=O)(=O)N2CCc3ccccc32)c(=O)[nH]1` the value was > 4 mM (inactive); for `Cc1ncc(CC(=O)O)s1`, > 4 mM (inactive). For `CC(C)NC(=O)c1nc2ccccc2s1` the value was > 4 mM (inactive); for `Cc1cc(S(=O)(=O)N2CCOCC2)ccc1F`, > 4 mM (inactive); for `CNC(=O)n1ccc(C(=O)N2CCCCC2)n1`, > 4 mM (inactive). Regarding `O=C(Nc1cccc(Cl)c1)c1cnn2cccnc12`, the Kd was > 4 mM (inactive).

As to `CN1CCN(C(=O)Nc2cccc3ccccc23)CC1`, the Kd is > 4 mM (inactive). As for `COc1cc(/C=C/C(=O)O)ccc1O`, the figure is > 4 mM (inactive); as for `COc1cccc(-c2nc(-c3ccccn3)no2)c1OC`, > 4 mM (inactive); as for `CSc1ccc(S(=O)(=O)N2CCCC2)cc1`, > 4 mM (inactive). Turning to `O=C1CCc2ccccc2CN1`, the Kd was > 4 mM (inactive).

As to `NC(=O)CCn1ncc2ccccc21`, the Kd is > 4 mM (inactive). For `COc1ccccc1NC(=O)c1ccc(Br)o1` the value was > 4 mM (inactive). For `CN(C)C1CCS(=O)(=O)C1` (stereo not drawn) the value was > 4 mM (inactive).

As to `Cc1cc(O)c(C)c(O)c1C(=O)O`, the Kd was > 4 mM (inactive). For `Cc1cc(C)n(CC(=O)NC2CCCCC2)n1` the value was > 4 mM (inactive); for `CC(=O)O[C@H]1C(=O)[C@@]2(C)C([C@H](OC(=O)c3ccccc3)[C@]3(O)C[C@H](OC(=O)[C@H](O)[C@@H](NC(=O)c4ccccc4)c4ccccc4)C(C)=C1C3(C)C)[C@]1(OC(C)=O)CO[C@@H]1C[C@@H]2O` (stereo partly drawn), > 4 mM (inactive); for `NC(=O)C1(c2ccccc2)CCOCC1`, > 4 mM (inactive). For the compound `CC1CCC(N2CCN(c3ncccn3)CC2)CC1` (stereo not drawn), the Kd was > 4 mM (inactive). As for `CCOC(=O)c1c(C)cc(O)c(C)c1O`, the figure is > 4 mM (inactive). On to `CCc1noc(C)c1C(=O)N1CCOCC1`, for which the Kd was > 4 mM (inactive). As for `CCOC(=O)N1CCCC1c1cccnc1` (stereo not drawn), the figure is > 4 mM (inactive). As for `N[C@@H](CCC(=O)N[C@@H](CS)C(=O)NCC(=O)O)C(=O)O`, the figure is > 4 mM (inactive); as for `COc1cc2c(c(OC)c1OC)-c1ccc(OC)c(=O)cc1[C@@H](NC(C)=O)CC2`, > 4 mM (inactive). For the compound `CSc1ccccc1NC(=O)c1cccnc1`, the Kd was > 4 mM (inactive).
